# Assay results: US20210308089A1, “METHODS OF TREATING AND/OR PREVENTING VIRAL INFECTIONS AND/OR DISEASES CAUSED BY VIRUSES IN A SUBJECT IN NEED THEREOF” (priority 2020, published 2021)
# Read-outs that look alike come from different tables or passages of the source.
# System: patients of the REDUCE-IT and earlier EPA placebo-controlled trials
# Format: in vivo, human
# Conditions: R-I
# [1] = Bilirubin shift: normal to high (Day 120)
# [2] = Bilirubin shift: normal to high (Day 360)
# [3] = Bilirubin shift: normal to high (Day 720)
# [4] = Bilirubin shift: normal to high (Day 1080)
# [5] = Bilirubin shift: normal to high (Day 1440)
# [6] = Bilirubin shift: normal to high (Day 1800)
smiles,measurement,setting,value
"CC/C=C\C/C=C\C/C=C\C/C=C\C/C=C\CCCC(=O)OCC [icosapent ethyl, eicosapentaenoic acid ethyl ester]",Risk Ratio (95% CI): Urate shift: normal to low (Day 1440),,0.210 (0.046 to 0.973) 4
same,Risk Ratio (95% CI): Uric acid PCS High >7.5 mg/dL (Women),,1.180 (0.974 to 1.429) −1
same,Risk Ratio (95% CI): Uric acid PCS High >8.0 mg/dL (Men),,1.313 (1.183 to 1.458) −2
same,Risk Ratio (95% CI): Uric acid PCS Low <1.9 mg/dL (Women),,1.000 (0.063 to 15.986) −1
same,Risk Ratio (95% CI): Uric acid PCS Low <2.5 mg/dL (Men),,0.650 (0.324 to 1.305) 2
same,ARR,Bilirubin >1x ULN to 2x ULN,3.5%
same,NNT,Bilirubin >1x ULN to 2x ULN,−29
same,Risk Ratio (95% CI),Bilirubin >1x ULN to 2x ULN,3.157 (2.392 to 4.168) −4
same,ARR,Bilirubin >2x ULN to 3x ULN,0.2%
same,NNT,Bilirubin >2x ULN to 3x ULN,−497
same,Risk Ratio (95% CI),Bilirubin >2x ULN to 3x ULN,3.668 (1.024 to 13.136) −4
same,ARR,Bilirubin high (Day 120),2.4%
same,NNT,Bilirubin high (Day 120),−42
same,Risk Ratio (95% CI),Bilirubin high (Day 120),4.288 (2.849 to 6.454) −4
same,ARR,Bilirubin high (Day 360),2.0%
same,NNT,Bilirubin high (Day 360),−50
same,Risk Ratio (95% CI),Bilirubin high (Day 360),3.263 (2.203 to 4.832) −4
same,ARR,Bilirubin high (Day 720),2.6%
same,NNT,Bilirubin high (Day 720),−38
same,Risk Ratio (95% CI),Bilirubin high (Day 720),5.052 (3.174 to 8.039) −5
same,ARR,Bilirubin high (Day 1080),2.0%
same,NNT,Bilirubin high (Day 1080),−50
same,Risk Ratio (95% CI),Bilirubin high (Day 1080),2.430 (1.683 to 3.508) −3
same,ARR,Bilirubin high (Day 1440),2.5%
same,NNT,Bilirubin high (Day 1440),−40
same,Risk Ratio (95% CI),Bilirubin high (Day 1440),3.543 (2.243 to 5.596) −4
same,ARR,Bilirubin high (Day 1800),2.3%
same,NNT,Bilirubin high (Day 1800),−43
same,Risk Ratio (95% CI),Bilirubin high (Day 1800),2.670 (1.569 to 4.545) −4
same,ARR,[1],1.3%
same,NNT,[1],−77
same,Risk Ratio (95% CI),[1],5.106 (2.754 to 9.467) −5
same,ARR,[2],1.3%
same,NNT,[2],−80
same,Risk Ratio (95% CI),[2],5.431 (2.773 to 10.636) −5
same,ARR,[3],1.3%
same,NNT,[3],−76
same,Risk Ratio (95% CI),[3],4.803 (2.516 to 9.168) −4
same,ARR,[4],1.0%
same,NNT,[4],−95
same,Risk Ratio (95% CI),[4],2.235 (1.374 to 3.636) −3
same,ARR,[5],1.8%
same,NNT,[5],−57
same,Risk Ratio (95% CI),[5],5.445 (2.687 to 11.034) −5
same,ARR,[6],1.2%
same,NNT,[6],−81
same,Risk Ratio (95% CI),[6],2.556 (1.242 to 5.259) −4
same,Placebo-Adjusted % Change,Erythrocytes (Day 120),+.72%
same,Placebo-Adjusted % Change,Erythrocytes (Day 360),+.26%
same,Placebo-Adjusted % Change,Erythrocytes (Day 720),+.29%
same,Placebo-Adjusted % Change,Erythrocytes (Day 1080),+.43%
same,Placebo-Adjusted % Change,Erythrocytes (Day 1440),+.66%
same,ARR,Erythrocytes low (Day 120),−1.3%
same,NNT,Erythrocytes low (Day 120),77
same,Risk Ratio (95% CI),Erythrocytes low (Day 120),0.814 (0.685 to 0.968) 1
same,ARR,Erythrocytes low (Day 360),−0.4%
same,NNT,Erythrocytes low (Day 360),223
same,Risk Ratio (95% CI),Erythrocytes low (Day 360),0.932 (0.781 to 1.113) 1
same,ARR,Erythrocytes low (Day 720),−0.4%
same,NNT,Erythrocytes low (Day 720),251
same,Risk Ratio (95% CI),Erythrocytes low (Day 720),0.940 (0.779 to 1.133) 1
same,ARR,Erythrocytes low (Day 1080),−1.7%
same,NNT,Erythrocytes low (Day 1080),60
same,Risk Ratio (95% CI),Erythrocytes low (Day 1080),0.781 (0.642 to 0.950) 2
same,ARR,Erythrocytes low (Day 1440),−0.8%
same,NNT,Erythrocytes low (Day 1440),120
same,Risk Ratio (95% CI),Erythrocytes low (Day 1440),0.888 (0.720 to 1.093) 1
same,ARR,Erythrocytes low (Day 1800),−0.2%
same,NNT,Erythrocytes low (Day 1800),485
same,Risk Ratio (95% CI),Erythrocytes low (Day 1800),0.975 (0.756 to 1.258) 1
same,Placebo-Adjusted % Change,Hematocrit (Day 120),+.42%
